Laboratory results as given in ChEMBL document CHEMBL4507260 (2021).

Assays:
Conditions in all cases: Compound concentration 1000.0 nM
[1] = target: Serine/threonine-protein kinase DCLK3 (Homo sapiens) (UniProt Q9C098)
[2] = target: Fibroblast growth factor receptor 2 (Homo sapiens) (UniProt P21802)
[3] = target: Serine/threonine-protein kinase LATS2 (Homo sapiens) (UniProt Q9NRM7)
[4] = target: Dual specificity tyrosine-phosphorylation-regulated kinase 2 (Homo sapiens) (UniProt Q92630)
[5] = target: Casein kinase I isoform alpha-like (Homo sapiens) (UniProt Q8N752)
[6] = target: Serine/threonine-protein kinase 38-like (Homo sapiens) (UniProt Q9Y2H1)
[7] = system: Tyrosine-protein kinase ABL1 (Homo sapiens), P00519 [F317I]
[8] = target: Non-receptor tyrosine-protein kinase TYK2 (Homo sapiens) (UniProt P29597)
[9] = target: Serine/threonine-protein kinase WNK3 (Homo sapiens) (UniProt Q9BYP7)
[10] = target: Serine/threonine-protein kinase 10 (Homo sapiens) (UniProt O94804)
[11] = system: Epidermal growth factor receptor (Homo sapiens), P00533 [UNDEFINED MUTATION]
[12] = target: Tyrosine-protein kinase JAK2 (Homo sapiens) (UniProt O60674)
[13] = target: Tyrosine-protein kinase HCK (Homo sapiens) (UniProt P08631)
[14] = target: Aurora kinase A (Homo sapiens) (UniProt O14965)
[15] = target: Dual specificity protein kinase TTK (Homo sapiens) (UniProt P33981)
[16] = target: Serine/threonine-protein kinase 24 (Homo sapiens) (UniProt Q9Y6E0)
[17] = target: Serine/threonine-protein kinase BRSK1 (Homo sapiens) (UniProt Q8TDC3)
[18] = target: Cyclin-dependent kinase-like 1 (Homo sapiens) (UniProt Q00532)
[19] = target: cGMP-dependent protein kinase 2 (Homo sapiens) (UniProt Q13237)
[20] = target: Death-associated protein kinase 3 (Homo sapiens) (UniProt O43293)
[21] = target: Calcium/calmodulin-dependent protein kinase type II subunit beta (Homo sapiens) (UniProt Q13554)
[22] = target: Cyclin-dependent kinase-like 5 (Homo sapiens) (UniProt O76039)
[23] = target: Microtubule-associated serine/threonine-protein kinase 1 (Homo sapiens) (UniProt Q9Y2H9)
[24] = target: Serine/threonine-protein kinase Chk1 (Homo sapiens) (UniProt O14757)
[25] = target: MAP kinase-activated protein kinase 5 (Homo sapiens) (UniProt Q8IW41)
[26] = target: G protein-coupled receptor kinase 3 (Homo sapiens) (UniProt P35626)
[27] = target: Dual specificity protein kinase CLK2 (Homo sapiens) (UniProt P49760)
[28] = target: Ribosomal protein S6 kinase alpha-6 (Homo sapiens) (UniProt Q9UK32)
[29] = target: Aurora kinase C (Homo sapiens) (UniProt Q9UQB9)
[30] = system: Receptor-type tyrosine-protein kinase FLT3 (Homo sapiens), P36888 [D835H]
[31] = target: Mast/stem cell growth factor receptor Kit (Homo sapiens) (UniProt P10721)
[32] = target: Serine/threonine-protein kinase MARK2 (Homo sapiens) (UniProt Q7KZI7)
[33] = target: Dual specificity mitogen-activated protein kinase kinase 7 (Homo sapiens) (UniProt O14733)
[34] = target: Tyrosine-protein kinase receptor TYRO3 (Homo sapiens) (UniProt Q06418)
[35] = target: Hormonally up-regulated neu tumor-associated kinase (Homo sapiens) (UniProt P57058)
[36] = target: Casein kinase II subunit alpha' (Homo sapiens) (UniProt P19784)
[37] = target: Mitogen-activated protein kinase 10 (Homo sapiens) (UniProt P53779)
[38] = target: Dual specificity mitogen-activated protein kinase kinase 5 (Homo sapiens) (UniProt Q13163)
[39] = target: Fibroblast growth factor receptor 4 (Homo sapiens) (UniProt P22455)
[40] = target: Serine/threonine-protein kinase PRP4 homolog (Homo sapiens) (UniProt Q13523)
[41] = target: Serine/threonine-protein kinase MAK (Homo sapiens) (UniProt P20794)
[42] = target: Serine/threonine-protein kinase ICK (Homo sapiens) (UniProt Q9UPZ9)
[43] = target: Receptor tyrosine-protein kinase erbB-3 (Homo sapiens) (UniProt P21860)
[44] = target: Mitogen-activated protein kinase kinase kinase kinase 3 (Homo sapiens) (UniProt Q8IVH8)
[45] = target: Phosphatidylinositol 3-kinase C2 domain-containing subunit gamma (Homo sapiens) (UniProt O75747)

Chain of Fibroblast growth factor receptor 4 (Homo sapiens) (P22455 22-802 limits assumed): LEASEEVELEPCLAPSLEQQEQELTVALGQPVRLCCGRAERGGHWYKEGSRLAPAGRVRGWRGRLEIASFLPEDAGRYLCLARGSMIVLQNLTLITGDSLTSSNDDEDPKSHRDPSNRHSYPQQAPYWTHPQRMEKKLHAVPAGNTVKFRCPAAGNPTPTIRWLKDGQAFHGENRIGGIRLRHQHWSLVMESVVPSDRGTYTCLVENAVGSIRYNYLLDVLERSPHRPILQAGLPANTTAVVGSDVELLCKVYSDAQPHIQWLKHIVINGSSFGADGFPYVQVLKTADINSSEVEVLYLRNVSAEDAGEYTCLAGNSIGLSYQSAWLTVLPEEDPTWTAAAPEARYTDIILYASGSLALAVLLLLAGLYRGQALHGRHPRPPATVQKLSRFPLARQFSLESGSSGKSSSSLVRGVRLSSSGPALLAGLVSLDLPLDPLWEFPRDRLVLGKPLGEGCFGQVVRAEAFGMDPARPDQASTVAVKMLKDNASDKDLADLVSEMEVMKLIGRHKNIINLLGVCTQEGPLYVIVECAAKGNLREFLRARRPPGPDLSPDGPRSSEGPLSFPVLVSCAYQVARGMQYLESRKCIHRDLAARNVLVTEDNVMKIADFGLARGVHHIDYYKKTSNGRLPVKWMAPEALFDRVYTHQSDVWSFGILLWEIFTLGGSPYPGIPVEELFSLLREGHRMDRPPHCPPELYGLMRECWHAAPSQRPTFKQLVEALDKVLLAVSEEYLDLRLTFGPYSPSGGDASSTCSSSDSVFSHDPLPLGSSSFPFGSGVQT
Chain of Epidermal growth factor receptor (Homo sapiens), P00533 [UNDEFINED MUTATION] (P00533 whole entry, looked up, change not shown): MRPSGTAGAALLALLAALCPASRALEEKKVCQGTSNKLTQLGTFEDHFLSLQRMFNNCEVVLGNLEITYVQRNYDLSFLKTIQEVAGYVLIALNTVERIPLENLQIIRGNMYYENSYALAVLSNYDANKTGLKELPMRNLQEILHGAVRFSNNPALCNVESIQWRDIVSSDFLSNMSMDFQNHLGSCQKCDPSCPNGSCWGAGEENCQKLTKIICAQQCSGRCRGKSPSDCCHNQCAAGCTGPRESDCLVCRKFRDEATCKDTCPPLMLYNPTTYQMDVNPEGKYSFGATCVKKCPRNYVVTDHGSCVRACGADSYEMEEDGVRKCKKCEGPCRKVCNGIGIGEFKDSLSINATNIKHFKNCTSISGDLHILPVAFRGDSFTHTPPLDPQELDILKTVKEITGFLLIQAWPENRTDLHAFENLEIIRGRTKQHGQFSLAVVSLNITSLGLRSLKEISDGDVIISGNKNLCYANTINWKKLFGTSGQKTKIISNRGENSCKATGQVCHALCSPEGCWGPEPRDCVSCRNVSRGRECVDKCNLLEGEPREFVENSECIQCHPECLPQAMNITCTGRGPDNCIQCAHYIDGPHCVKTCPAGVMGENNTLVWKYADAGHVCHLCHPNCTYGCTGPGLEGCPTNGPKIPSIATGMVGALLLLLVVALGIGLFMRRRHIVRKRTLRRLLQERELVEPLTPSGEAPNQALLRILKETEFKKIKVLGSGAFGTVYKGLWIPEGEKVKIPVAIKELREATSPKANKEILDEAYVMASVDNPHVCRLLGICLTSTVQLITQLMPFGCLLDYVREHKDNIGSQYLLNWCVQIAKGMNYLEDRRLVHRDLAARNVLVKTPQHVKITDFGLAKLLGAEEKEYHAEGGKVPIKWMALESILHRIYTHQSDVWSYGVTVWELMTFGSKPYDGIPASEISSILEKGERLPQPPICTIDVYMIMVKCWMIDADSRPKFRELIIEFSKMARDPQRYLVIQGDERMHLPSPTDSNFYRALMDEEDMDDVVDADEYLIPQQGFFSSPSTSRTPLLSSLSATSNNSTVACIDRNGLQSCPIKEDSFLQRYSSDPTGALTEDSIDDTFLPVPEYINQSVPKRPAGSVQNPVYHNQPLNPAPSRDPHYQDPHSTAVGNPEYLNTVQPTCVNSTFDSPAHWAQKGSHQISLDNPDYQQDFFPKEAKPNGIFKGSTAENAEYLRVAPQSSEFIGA
Chain of MAP kinase-activated protein kinase 5 (Homo sapiens) (Q8IW41 whole entry): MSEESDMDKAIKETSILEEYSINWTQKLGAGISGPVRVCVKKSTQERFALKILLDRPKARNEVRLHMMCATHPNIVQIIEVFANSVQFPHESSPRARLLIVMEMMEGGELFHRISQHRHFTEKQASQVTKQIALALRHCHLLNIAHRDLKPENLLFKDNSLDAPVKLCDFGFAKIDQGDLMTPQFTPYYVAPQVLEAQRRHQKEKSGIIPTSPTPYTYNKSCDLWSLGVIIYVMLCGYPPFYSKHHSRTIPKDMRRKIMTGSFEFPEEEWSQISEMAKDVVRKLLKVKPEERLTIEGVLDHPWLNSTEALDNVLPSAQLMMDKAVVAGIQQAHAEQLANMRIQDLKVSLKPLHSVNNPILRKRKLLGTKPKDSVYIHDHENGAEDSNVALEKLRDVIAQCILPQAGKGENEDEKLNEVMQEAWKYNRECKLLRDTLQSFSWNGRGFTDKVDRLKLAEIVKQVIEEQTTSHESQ
Chain of Dual specificity protein kinase TTK (Homo sapiens) (P33981 whole entry): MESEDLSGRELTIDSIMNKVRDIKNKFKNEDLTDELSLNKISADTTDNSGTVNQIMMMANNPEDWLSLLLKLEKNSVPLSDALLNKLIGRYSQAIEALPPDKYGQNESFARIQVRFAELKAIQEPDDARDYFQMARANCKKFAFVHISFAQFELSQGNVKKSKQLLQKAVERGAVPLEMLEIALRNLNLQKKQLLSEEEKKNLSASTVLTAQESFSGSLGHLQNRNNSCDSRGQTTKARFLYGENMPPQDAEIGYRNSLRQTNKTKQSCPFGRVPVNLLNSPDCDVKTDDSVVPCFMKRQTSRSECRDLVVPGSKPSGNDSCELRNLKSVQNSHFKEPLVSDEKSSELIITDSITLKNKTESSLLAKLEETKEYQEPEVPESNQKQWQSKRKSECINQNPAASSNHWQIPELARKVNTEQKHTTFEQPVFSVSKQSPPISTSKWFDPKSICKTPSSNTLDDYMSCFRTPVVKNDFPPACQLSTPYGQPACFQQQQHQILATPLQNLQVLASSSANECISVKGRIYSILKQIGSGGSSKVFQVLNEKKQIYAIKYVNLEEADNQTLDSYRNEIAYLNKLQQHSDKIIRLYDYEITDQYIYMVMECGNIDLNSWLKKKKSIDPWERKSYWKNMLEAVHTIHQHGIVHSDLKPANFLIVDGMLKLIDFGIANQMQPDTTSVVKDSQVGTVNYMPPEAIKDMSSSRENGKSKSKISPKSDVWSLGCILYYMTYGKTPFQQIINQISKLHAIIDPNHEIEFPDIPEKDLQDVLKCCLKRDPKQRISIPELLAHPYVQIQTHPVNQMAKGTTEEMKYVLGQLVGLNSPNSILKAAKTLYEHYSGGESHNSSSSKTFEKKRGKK
Chain of Casein kinase I isoform alpha-like (Homo sapiens) (Q8N752 whole entry, canonical isoform): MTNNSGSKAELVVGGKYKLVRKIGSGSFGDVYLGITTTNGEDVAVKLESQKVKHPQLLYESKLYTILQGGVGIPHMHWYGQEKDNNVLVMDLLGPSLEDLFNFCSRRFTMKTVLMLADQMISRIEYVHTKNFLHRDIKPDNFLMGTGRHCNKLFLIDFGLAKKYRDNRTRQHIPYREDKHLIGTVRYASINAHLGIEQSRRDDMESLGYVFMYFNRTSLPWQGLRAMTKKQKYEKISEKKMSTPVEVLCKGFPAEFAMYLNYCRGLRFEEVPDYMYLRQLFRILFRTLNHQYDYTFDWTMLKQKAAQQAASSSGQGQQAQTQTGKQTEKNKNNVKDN
Chain of Serine/threonine-protein kinase 10 (Homo sapiens) (O94804 whole entry, looked up): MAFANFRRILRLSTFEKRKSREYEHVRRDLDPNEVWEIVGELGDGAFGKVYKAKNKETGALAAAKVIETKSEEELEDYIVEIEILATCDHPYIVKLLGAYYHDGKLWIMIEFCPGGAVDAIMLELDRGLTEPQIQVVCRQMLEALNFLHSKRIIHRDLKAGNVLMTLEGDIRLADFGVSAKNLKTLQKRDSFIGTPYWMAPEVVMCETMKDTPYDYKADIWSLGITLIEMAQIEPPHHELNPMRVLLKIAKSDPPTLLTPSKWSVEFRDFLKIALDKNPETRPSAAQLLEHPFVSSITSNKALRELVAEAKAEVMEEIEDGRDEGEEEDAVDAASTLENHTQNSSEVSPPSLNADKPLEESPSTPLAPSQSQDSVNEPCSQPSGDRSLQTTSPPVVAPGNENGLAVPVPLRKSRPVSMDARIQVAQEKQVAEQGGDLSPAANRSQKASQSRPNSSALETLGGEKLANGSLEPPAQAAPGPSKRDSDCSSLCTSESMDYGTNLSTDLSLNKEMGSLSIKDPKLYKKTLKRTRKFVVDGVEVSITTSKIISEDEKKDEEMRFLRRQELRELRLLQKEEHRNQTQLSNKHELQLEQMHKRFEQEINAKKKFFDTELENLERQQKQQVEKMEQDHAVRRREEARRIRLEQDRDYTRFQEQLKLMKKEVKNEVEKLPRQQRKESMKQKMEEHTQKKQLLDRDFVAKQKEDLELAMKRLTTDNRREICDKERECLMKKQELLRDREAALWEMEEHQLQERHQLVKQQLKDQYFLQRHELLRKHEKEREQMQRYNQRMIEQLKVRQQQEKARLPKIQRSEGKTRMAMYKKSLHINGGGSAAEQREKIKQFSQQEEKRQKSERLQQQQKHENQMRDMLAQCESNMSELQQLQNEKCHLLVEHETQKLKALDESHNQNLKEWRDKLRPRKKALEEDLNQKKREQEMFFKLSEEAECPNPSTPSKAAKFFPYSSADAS
Chain of Dual specificity mitogen-activated protein kinase kinase 7 (Homo sapiens) (O14733 whole entry): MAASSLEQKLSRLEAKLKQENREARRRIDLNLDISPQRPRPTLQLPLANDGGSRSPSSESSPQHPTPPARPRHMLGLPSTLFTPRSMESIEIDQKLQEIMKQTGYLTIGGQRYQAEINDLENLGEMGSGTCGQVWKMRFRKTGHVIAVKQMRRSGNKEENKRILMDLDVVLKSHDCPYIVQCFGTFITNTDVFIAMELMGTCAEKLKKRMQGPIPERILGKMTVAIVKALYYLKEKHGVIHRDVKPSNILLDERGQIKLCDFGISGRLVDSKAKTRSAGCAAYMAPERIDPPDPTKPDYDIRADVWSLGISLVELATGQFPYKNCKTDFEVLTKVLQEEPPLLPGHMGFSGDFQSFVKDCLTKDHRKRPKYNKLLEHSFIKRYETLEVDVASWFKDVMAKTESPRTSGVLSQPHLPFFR

## CSc1cccnc1N1CCN(Cc2nc3ccccc3[nH]2)CC1 [A-769]
[1]
  residual activity: 100%
[2]
  residual activity: 100%
[3]
  residual activity: 94%
[4]
  residual activity: 81%
[5]
  residual activity: 100%
[6]
  residual activity: 100%
[7]
  residual activity: 74%
[8]
  residual activity: 100%
[9]
  residual activity: 100%
[10]
  residual activity: 87%
[11]
  residual activity: 100%
[12]
  residual activity: 65%
[13]
  residual activity: 82%
[14]
  residual activity: 74%
[15]
  residual activity: 98%
[16]
  residual activity: 100%
[17]
  residual activity: 100%
[18]
  residual activity: 100%
[19]
  residual activity: 94%
[20]
  residual activity: 100%
[21]
  residual activity: 100%
[22]
  residual activity: 76%
[23]
  residual activity: 100%
[24]
  residual activity: 94%
[25]
  residual activity: 84%
[26]
  residual activity: 31%
[27]
  residual activity: 100%
[28]
  residual activity: 81%
[29]
  residual activity: 100%
[30]
  residual activity: 65%
[31]
  residual activity: 72%
[32]
  residual activity: 100%
[33]
  residual activity: 92%
[34]
  residual activity: 100%
[35]
  residual activity: 100%
[36]
  residual activity: 100%
[37]
  residual activity: 66%
[38]
  residual activity: 72%
[39]
  residual activity: 89%
[40]
  residual activity: 100%
[41]
  residual activity: 100%
[42]
  residual activity: 68%
[43]
  residual activity: 90%
[44]
  residual activity: 100%
[45]
  residual activity: 95%

## c1ccc(N2CCN(Cc3nc4ccccc4[nH]3)CC2)nc1 [ABT-724]
[1]
  residual activity: 93%
[2]
  residual activity: 96%
[3]
  residual activity: 75%
[4]
  residual activity: 100%
[5]
  residual activity: 100%
[6]
  residual activity: 72%
[7]
  residual activity: 100%
[8]
  residual activity: 100%
[9]
  residual activity: 100%
[10]
  residual activity: 100%
[11]
  residual activity: 100%
[12]
  residual activity: 100%
[13]
  residual activity: 100%
[14]
  residual activity: 89%
[15]
  residual activity: 100%
[16]
  residual activity: 100%
[17]
  residual activity: 91%
[18]
  residual activity: 78%
[19]
  residual activity: 100%
[20]
  residual activity: 91%
[21]
  residual activity: 100%
[22]
  residual activity: 100%
[23]
  residual activity: 65%
[24]
  residual activity: 100%
[25]
  residual activity: 100%
[26]
  residual activity: 67%
[27]
  residual activity: 89%
[28]
  residual activity: 100%
[29]
  residual activity: 100%
[30]
  residual activity: 100%
[31]
  residual activity: 100%
[32]
  residual activity: 100%
[33]
  residual activity: 100%
[34]
  residual activity: 93%
[35]
  residual activity: 100%
[36]
  residual activity: 100%
[37]
  residual activity: 100%
[38]
  residual activity: 83%
[39]
  residual activity: 93%
[40]
  residual activity: 57%
[41]
  residual activity: 100%
[42]
  residual activity: 100%
[43]
  residual activity: 91%
[44]
  residual activity: 100%
[45]
  residual activity: 100%
